This note sets out measurements from patent US12077503B2, “Substituted cyclic amides and their use as herbicides” (FMC CORPORATION, priority 2015, dated 2024).

Holding throughout (assay type): in vivo
For assay [1], the system named is giant foxtail (Setaria faberii). Briefly: Test A preemergence. The conditions noted are these: Setaria faberi, pre-emergence, 240 h; for pest or weed control at 125 g/ha: 125 g ai/ha; for pest or weed control at 500 g/ha: 500 g ai/ha. In short, it runs like this:
(§1)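 Visual injury, scored on a 0–100 scale relative to untreated controls, was recorded about 10 d after application. Treatments were a preemergence soil spray over planted seeds or a postemergence spray on plants at the one- to two-leaf stage, 2 to 10 cm tall, all in loam soil–sand blend in the greenhouse.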

Assay [2] concerns ryegrass, Italian (Italian ryegrass, Lolium multiflorum). The experiment in a line: Test A postemergence. The conditions noted are these: Lolium multiflorum, post-emergence, 240 h, postemergence; for pest or weed control at 125 g/ha: 125 g ai/ha. In short, it runs like this:
as §1

Assay [3] relates to barnyardgrass (Echinochloa crus-galli). The experiment in a line: Test A postemergence. The conditions noted are these: Echinochloa crus-galli, post-emergence, 240 h, postemergence; for pest or weed control at 125 g/ha: 125 g ai/ha. In short, it runs like this: as §1
Assay [4] concerns wheat (Triticum aestivum). Briefly: Test A postemergence. As to conditions: Triticum aestivum, post-emergence, 240 h, postemergence; for plant injury at 125 g/ha: 125 g ai/ha. A digest of the protocol:
as §1

Assay [5] deals with giant foxtail (Setaria faberii). The experiment in a line: Test A postemergence. As to conditions: Setaria faberi, post-emergence, 240 h, postemergence; for pest or weed control at 125 g/ha: 125 g ai/ha. A digest of the protocol:
as §1

In assay [6] the test system is corn (Zea mays). Briefly: Test A postemergence. The conditions noted are these: Zea mays, post-emergence, 240 h, postemergence; for plant injury at 125 g/ha: 125 g ai/ha. A digest of the protocol:
as §1

Assay [7] concerns Kochia (Kochia scoparia). The experiment in a line: Test A postemergence. The conditions noted are these: Bassia scoparia, post-emergence, 240 h, postemergence; for pest or weed control at 125 g/ha: 125 g ai/ha. In short, it runs like this: as §1
The subject of assay [8] is blackgrass (Alopecurus myosuroides). The experiment in a line: Test A postemergence. As to conditions: Alopecurus myosuroides, post-emergence, 240 h, postemergence; for pest or weed control at 125 g/ha: 125 g ai/ha. A digest of the protocol:
as §1

Assay [9] relates to ragweed (common ragweed, Ambrosia elatior). Briefly: Test A postemergence. As to conditions: Ambrosia artemisiifolia, post-emergence, 240 h, postemergence; for pest or weed control at 125 g/ha: 125 g ai/ha. In short, it runs like this:
as §1

Assay [10] has as its system Galium (catchweed bedstraw, Galium aparine). Briefly: Test A postemergence. As to conditions: Galium, post-emergence, 240 h, postemergence; for pest or weed control at 125 g/ha: 125 g ai/ha. A digest of the protocol:
as §1

Assay [11] has as its system pigweed (Amaranthus retroflexus). Briefly: Test A postemergence. The conditions noted are these: Amaranthus retroflexus, post-emergence, 240 h, postemergence; for pest or weed control at 125 g/ha: 125 g ai/ha. A digest of the protocol: as §1
Assay [12] has as its system barnyardgrass (Echinochloa crus-galli). The experiment in a line: Test B flooded paddy test. The conditions noted are these: Echinochloa crus-galli, 250 g ai/ha, Flood, read-out: Barnyardgrass plant response rating. A digest of the protocol:
(§2)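 Rating scale 0–100 (visual, vs untreated controls) after a 13–15 d greenhouse period; application to the flood layer, 3 cm above soil and maintained; plants at 2-leaf stage when treated.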

Assay [13] has as its system sedge, umbrella (small-flower umbrella sedge, Cyperus difformis). Briefly: Test B flooded paddy test. The conditions noted are these: Cyperus difformis, 250 g ai/ha, Flood, read-out: Sedge, Umbrella plant response rating. In short, it runs like this:
as §2

In assay [14] the test system is ducksalad (Heteranthera limosa). Briefly: Test B flooded paddy test. The conditions noted are these: Heteranthera limosa, 250 g ai/ha, Flood, read-out: Ducksalad plant response rating. In short, it runs like this:
as §2

The test system of assay [15] is rice (Oryra sativa). Briefly: Test B flooded paddy test. As to conditions: Oryza sativa, 250 g ai/ha, Flood, read-out: Rice plant response rating. A digest of the protocol: as §2
[16] abbreviates: preemergence, 0 to 100 scale where 0 is no effect and 100 is complete control, read-out: Foxtail, Giant plant response rating.
The mark [17] stands for this setting: 0 to 100 scale where 0 is no effect and 100 is complete control.
Where [18] appears, read: Preemergence, visual injury vs untreated controls after approximately 10 d, read-out: Foxtail, Giant plant response rating (0 to 100 scale where 0 is no effect and 100 is complete control).
The mark [19] stands for this setting: visual injury rating after approximately 10 d, read-out: Ryegrass, Italian plant response rating (0 to 100 scale, 0 no effect, 100 complete control).
The mark [20] stands for this setting: visual injury rating after approximately 10 d, read-out: Barnyardgrass plant response rating (0 to 100 scale, 0 no effect, 100 complete control).
[21] abbreviates: visual injury rating after approximately 10 d, read-out: Wheat plant response rating (0 to 100 scale, 0 no effect, 100 complete control).
Setting [22] is: visual injury rating after approximately 10 d, read-out: Foxtail, Giant plant response rating (0 to 100 scale, 0 no effect, 100 complete control).
[23] abbreviates: visual injury rating after approximately 10 d, read-out: Corn plant response rating (0 to 100 scale, 0 no effect, 100 complete control).
Setting [24] is: visual injury rating after approximately 10 d, read-out: Kochia plant response rating (0 to 100 scale, 0 no effect, 100 complete control).
Setting [25] is: visual injury rating after approximately 10 d, read-out: Blackgrass plant response rating (0 to 100 scale, 0 no effect, 100 complete control).
Setting [26] is: visual injury rating after approximately 10 d, read-out: Ragweed plant response rating (0 to 100 scale, 0 no effect, 100 complete control).
Where [27] appears, read: visual injury rating after approximately 10 d, read-out: Galium plant response rating (0 to 100 scale, 0 no effect, 100 complete control).
The mark [28] stands for this setting: visual injury rating after approximately 10 d, read-out: Pigweed plant response rating (0 to 100 scale, 0 no effect, 100 complete control).
The mark [29] stands for this setting: scale of 0 to 100 where 0 is no effect and 100 is complete control.

Read-outs that look alike come from different tables or passages of the source.

As to `O=C1NC[C@H](c2cc(C(F)F)cs2)[C@H]1C(=O)Nc1ccccc1F` [Compound 1116], the pest or weed control at 125 g/ha in assay [1] (preemergence, 0 to 100 scale where 0 is no effect and 100 is complete control, approx. 10 d, read-out: Foxtail, Giant plant response rating) is 20%; in assay [2] (visual injury on 0 to 100 scale (0 no effect, 100 complete control), approx. 10 d, read-out: Ryegrass, Italian plant response rating), 0%; in assay [3] (visual injury on 0 to 100 scale (0 no effect, 100 complete control), approx. 10 d, read-out: Barnyardgrass plant response rating), 30%; in [5] (visual injury on 0 to 100 scale (0 no effect, 100 complete control), approx. 10 d, read-out: Foxtail, Giant plant response rating) it was 0%; in assay [7] (visual injury on 0 to 100 scale (0 no effect, 100 complete control), approx. 10 d, read-out: Kochia plant response rating), 0%; in [8] (visual injury on 0 to 100 scale (0 no effect, 100 complete control), approx. 10 d, read-out: Blackgrass plant response rating), 0%. The pest or weed control at 125 g/ha was determined as 0% in assay [9] (visual injury on 0 to 100 scale (0 no effect, 100 complete control), approx. 10 d, read-out: Ragweed plant response rating); 0% in assay [10] (visual injury on 0 to 100 scale (0 no effect, 100 complete control), approx. 10 d, read-out: Galium plant response rating); 0% in [11] (visual injury on 0 to 100 scale (0 no effect, 100 complete control), approx. 10 d, read-out: Pigweed plant response rating). Moreover, the pest or weed control at 500 g/ha is 90% in [1] (setting [16]); 20% in assay [2] (500 g ai/ha, 0 to 100 scale, 0 is no effect, 100 is complete control, read-out: Ryegrass, Italian plant response rating); 60% in [3] (500 g ai/ha, 0 to 100 scale, 0 is no effect, 100 is complete control, read-out: Barnyardgrass plant response rating); 0% in assay [5] (500 g ai/ha, 0 to 100 scale, 0 is no effect, 100 is complete control, read-out: Foxtail, Giant plant response rating); 30% in assay [7] (500 g ai/ha, 0 to 100 scale, 0 is no effect, 100 is complete control, read-out: Kochia plant response rating); 30% in assay [8] (500 g ai/ha, 0 to 100 scale, 0 is no effect, 100 is complete control, read-out: Blackgrass plant response rating). Besides, the pest or weed control at 500 g/ha in [9] (500 g ai/ha, 0 to 100 scale, 0 is no effect, 100 is complete control, read-out: Ragweed plant response rating) stood at 0%; in assay [10] (500 g ai/ha, 0 to 100 scale, 0 is no effect, 100 is complete control, read-out: Galium plant response rating), 40%; in assay [11] (500 g ai/ha, 0 to 100 scale, 0 is no effect, 100 is complete control, read-out: Pigweed plant response rating) it was 0%. For the same compound, the plant injury at 125 g/ha was 0% in assay [4] (visual injury on 0 to 100 scale (0 no effect, 100 complete control), approx. 10 d, read-out: Wheat plant response rating) and 0% in assay [6] (visual injury on 0 to 100 scale (0 no effect, 100 complete control), approx. 10 d, read-out: Corn plant response rating). Moreover, the plant injury at 500 g/ha is 20% in assay [4] (500 g ai/ha, 0 to 100 scale, 0 is no effect, 100 is complete control, read-out: Wheat plant response rating) and 0% in assay [6] (500 g ai/ha, 0 to 100 scale, 0 is no effect, 100 is complete control, read-out: Corn plant response rating). Moreover, the pest or weed control at 250 g/ha in assay [12] (setting [17]) was 50%; in [13] (setting [17]) it was 75%; in assay [14] (setting [17]) it was 100%; in assay [15] (setting [17]), 20%.

In the case of `CCOc1ccc([C@H]2CNC(=O)[C@@H]2C(=O)Nc2ccc(F)cc2F)cc1` [Compound 908], the pest or weed control at 125 g/ha in assay [1] (setting [16]) turned out to be 30%; in assay [2] (setting [19]) it was 0%; in assay [3] (setting [20]), 20%; in assay [5] (setting [22]) it was 30%; in assay [7] (setting [24]), 0%; in [8] (setting [25]), 0%. Further, the pest or weed control at 125 g/ha in assay [9] (setting [26]), in [10] (setting [27]) and in [11] (setting [28]) was 0% in each case. In addition, the pest or weed control at 500 g/ha in assay [1] (setting [18]) is 80%. Moreover, the plant injury at 125 g/ha in [4] (setting [21]) and in [6] (setting [23]) was 0% each time. Besides, the pest or weed control at 250 g/ha in assay [12] (setting [29]), in assay [13] (setting [29]), in assay [14] (setting [29]) and in assay [15] (setting [29]) was 0% throughout.

As for `Cc1cc(F)cc([C@H]2CNC(=O)[C@@H]2C(=O)Nc2ccc(F)c(F)c2F)c1` [Compound 848], the pest or weed control at 125 g/ha in assay [1] (setting [16]) amounted to 90%; in assay [2] (setting [19]) it was 0%; in assay [3] (setting [20]), 90%; in assay [5] (setting [22]) it was 70%; in assay [7] (setting [24]), 0%; in assay [8] (setting [25]), 0%. The figures for the pest or weed control at 125 g/ha in assay [9] (setting [26]), in [10] (setting [27]) and in assay [11] (setting [28]) were 0%, 30% and 0%, respectively. In assay [1] (setting [18]), the pest or weed control at 500 g/ha was determined as 90%. Also, the plant injury at 125 g/ha in [4] (setting [21]) and in assay [6] (setting [23]) was 0% throughout. In addition, the pest or weed control at 250 g/ha in [12] (setting [29]) turned out to be 60%; in [13] (setting [29]), 0%; in assay [14] (setting [29]), 100%; in [15] (setting [29]), 0%.
